Where a SMILES comes first, the peptide text is derived from it.
Biological target: T1, Neutrophil Elastase (Homo sapiens, UniProt P08246)
T1 construct: purchased Enzo Life Science BML-AK497-001
T1 sequence (P08246 30-267): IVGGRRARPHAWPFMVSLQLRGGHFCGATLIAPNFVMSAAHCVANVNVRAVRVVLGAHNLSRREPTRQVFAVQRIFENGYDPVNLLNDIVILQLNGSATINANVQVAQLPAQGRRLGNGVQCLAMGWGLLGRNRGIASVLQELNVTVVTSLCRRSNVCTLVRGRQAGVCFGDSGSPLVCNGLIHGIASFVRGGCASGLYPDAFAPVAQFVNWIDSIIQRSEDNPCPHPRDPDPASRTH
Test: Elastase activity inhibitory ability, Neutrophil Elastase colorimetric method
Assay type: biochemical
Procedure: In order to confirm the elastase activity inhibitory ability of Regentide-041, it was measured using the Neutrophil Elastase colorimetric method (BML-AK497-001, Enzo Life Science, Pennsylvania, USA). Specifically, after an assay buffer and D.W. were diluted at 1:1, an elastase reagent and a substrate reagent were diluted to have final concentrations of 2.2 μU/μl and 100 μM, respectively. In addition, Regentide-041 was diluted to have final concentrations of 0.1, 1, 10, 50, 100, and 150 μM, respectively. A working solution was prepared by mixing the assay buffer, elastase reagent, and Regentide-041 diluent. […] of the working solution was put in each well of a 96-well plate and reacted at 37° C. for 5 minutes. Next, […] of the substrate reagent was put, and absorbance was measured for 15 minutes at absorbance 405 nm with a Microplate reader (Epoch 2 Microplate spectrophotometer. Biotek, Winooski, VT, USA).

CC[C@H](C)[C@H](NC(=O)CNC(=O)CNC(=O)[C@H](CCCNC(=N)N)NC(=O)[C@@H]1CCCN1C(=O)[C@@H](NC(=O)[C@@H](N)CS)[C@@H](C)CC)C(=O)N[C@@H](CS)C(=O)N[C@@H](CC(C)C)C(=O)N[C@H](C(=O)N[C@@H](C)C(=O)N[C@@H](CC(C)C)C(N)=O)C(C)C [Regentide-041, CIPRGGICLVAL-NH2] (H-CIPRGGICLVAL-NH2)
inhibition at 150 µM: 52.7 ± 1.2%

From patent US12606595B2, “Regentide-041 and composition comprising Regentide-041 for improving skin condition” (NINEBIOPHARM CO., LTD., priority 2020, dated 2026)
